Columns and labels:
Type in all cases: in vivo
[1] = test system: transplanted rice; assay: Test Example 1: preemergence treatment under submerged conditions, effect on crop; conditions: dose 2.52 g/a
Summary of the method: (§1)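 Submerged conditions, 4 cm water over alluvial soil. Weeds sown and 2.5-leaf rice transplanted; compound applied preemergence to water surface, doses in g per are. Greenhouse, 25 to 30° C., three weeks, then 0–5 mortality rating.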

[2] = test system: barnyardgrass; assay: Test Example 1: herbicidal effects in preemergence treatment under submerged conditions; conditions: dose 2.52 g/a
Summary of the method: as §1

[3] = test system: bulrush; assay: as above; conditions: dose 2.52 g/a
Summary of the method: as §1

[4] = test system: ducksalad; assay: as above; conditions: dose 2.52 g/a
Summary of the method: as §1

[5] = test system: barnyardgrass; assay: Test Example 2: herbicidal effects during the vegetation period under submerged conditions; conditions: treatment during the vegetation period under submerged conditions; dose 2.52 g/a
Summary of the method: (§2)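 Barnyardgrass, bulrush and ducksalad were co-sown in alluvial soil flooded to 4 cm and grown in a greenhouse at 25 to 30° C. At the 1- or 2-leaf stage, water-diluted emulsifiable concentrates went onto the water surface at set doses (g/a). Herbicidal effect was scored three weeks later on a graded scale.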

[6] = test system: bulrush; assay: as above; conditions: treatment during the vegetation period under submerged conditions; dose 2.52 g/a
Summary of the method: as §2

[7] = test system: ducksalad; assay: as above; conditions: treatment during the vegetation period under submerged conditions; dose 2.52 g/a
Summary of the method: as §2

[8] = test system: common lambsquater; assay: Test Example 3: herbicidal effects in soil treatment; conditions: dose 3.2 g/a
Summary of the method: (§3)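 Seeds were sown in sterilized diluvial soil and covered with about 1.5 cm of soil. Compounds, formulated as emulsifiable concentrates and diluted with water, were sprayed evenly over the soil surface at set doses in g/a. Herbicidal effect was scored on a rating scale three weeks later.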

[9] = test system: barnyardgrass; assay: as above; conditions: dose 3.2 g/a
Summary of the method: as §3

[10] = test system: beadstraw; assay: as above; conditions: dose 3.2 g/a
Summary of the method: as §3

[11] = test system: posumbu knotweed; assay: as above; conditions: dose 3.2 g/a
Summary of the method: as §3

[12] = test system: wild oat; assay: as above; conditions: dose 3.2 g/a
Summary of the method: as §3

[13] = test system: Italian ryegrass; assay: as above; conditions: dose 3.2 g/a
Summary of the method: as §3

[14] = test system: giant foxtail; assay: as above; conditions: dose 3.2 g/a
Summary of the method: as §3

[15] = test system: common chickweed; assay: as above; conditions: dose 3.2 g/a
Summary of the method: as §3

[16] = test system: large crabgrass; assay: as above; conditions: dose 3.2 g/a
Summary of the method: as §3

[17] = test system: water foxtail; assay: as above; conditions: dose 3.2 g/a
Summary of the method: as §3

[18] = test system: common ragweed; assay: as above; conditions: dose 3.2 g/a
Summary of the method: as §3

[19] = test system: velvetleaf; assay: as above; conditions: dose 3.2 g/a
Summary of the method: as §3

[20] = test system: redroot pigweed; assay: as above; conditions: dose 3.2 g/a
Summary of the method: as §3

[21] = test system: common lambsquater; assay: Test Example 4: herbicidal effect in foliage treatment; conditions: dose 3.2 g/a, three weeks after the application
Summary of the method: (§4)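 A uniform foliar spray of emulsifiable concentrate, diluted with water to give the stated g/a dose, was applied to plants raised for 14 days from seed in sterilized diluvial soil at 25 to 30° C. Herbicidal effects were scored three weeks later.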

[22] = test system: barnyardgrass; assay: as above; conditions: dose 3.2 g/a, three weeks after the application
Summary of the method: as §4

[23] = test system: beadstraw; assay: as above; conditions: dose 3.2 g/a, three weeks after the application
Summary of the method: as §4

[24] = test system: posumbu knotweed; assay: as above; conditions: dose 3.2 g/a, three weeks after the application
Summary of the method: as §4

[25] = test system: wild oat; assay: as above; conditions: dose 3.2 g/a, three weeks after the application
Summary of the method: as §4

[26] = test system: Italian ryegrass; assay: as above; conditions: dose 3.2 g/a, three weeks after the application
Summary of the method: as §4

[27] = test system: giant foxtail; assay: as above; conditions: dose 3.2 g/a, three weeks after the application
Summary of the method: as §4

[28] = test system: common chickweed; assay: as above; conditions: dose 3.2 g/a, three weeks after the application
Summary of the method: as §4

[29] = test system: large crabgrass; assay: as above; conditions: dose 3.2 g/a, three weeks after the application
Summary of the method: as §4

[30] = test system: water foxtail; assay: as above; conditions: dose 3.2 g/a, three weeks after the application
Summary of the method: as §4

[31] = test system: common ragweed; assay: as above; conditions: dose 3.2 g/a, three weeks after the application
Summary of the method: as §4

[32] = test system: velvetleaf; assay: as above; conditions: dose 3.2 g/a, three weeks after the application
Summary of the method: as §4

[33] = test system: redroot pigweed; assay: as above; conditions: dose 3.2 g/a, three weeks after the application
Summary of the method: as §4

Row | Structure (SMILES) | a: transplanted rice, effect on crop (evaluation scale 0-5) [1] | A: barnyardgrass, herbicidal effect (evaluation scale 0-5) [2] | B: bulrush, herbicidal effect (evaluation scale 0-5) [3] | C: ducksalad, herbicidal effect (evaluation scale 0-5) [4] | A: barnyardgrass, herbicidal effect (evaluation scale 0-5) [5] | B: bulrush, herbicidal effect (evaluation scale 0-5) [6] | C: ducksalad, herbicidal effect (evaluation scale 0-5) [7] | herbicidal effect, L: common lambsquater [8] | herbicidal effect, A: barnyardgrass [9] | herbicidal effect, O: beadstraw [10] | herbicidal effect, M: posumbu knotweed [11] | herbicidal effect, F: wild oat [12] | herbicidal effect, H: Italian ryegrass [13] | herbicidal effect, E: giant foxtail [14] | herbicidal effect, N: common chickweed [15] | herbicidal effect, D: large crabgrass [16] | herbicidal effect, G: water foxtail [17] | herbicidal effect, J: common ragweed [18] | herbicidal effect, I: velvetleaf [19] | herbicidal effect, K: redroot pigweed [20] | other results
1 | CN1COCN(Cc2ccccc2N(C(=O)OCCCl)S(=O)(=O)C(F)(F)F)C1=O [IV-3] | 0 (mortality of less than 5% (almost ineffective)) | 5 (mortality of 90% or above (nearly complete death)) | 5 (mortality of 90% or above (nearly complete death)) | 5 (mortality of 90% or above (nearly complete death)) | 5 (mortality of 90% or above (nearly complete death)) | 5 (mortality of 90% or above (nearly complete death)) | 4 (mortality of at least 70% and less than 90%) | 0 (mortality of less than 5% (almost ineffective)) | 5 (mortality of 90% or above (nearly complete death)) | 0 (mortality of less than 5% (almost ineffective)) | 0 (mortality of less than 5% (almost ineffective)) | 0 (mortality of less than 5% (almost ineffective)) | 0 (mortality of less than 5% (almost ineffective)) | 3 (mortality of at least 40% and less than 70%) | 0 (mortality of less than 5% (almost ineffective)) | 4 (mortality of at least 70% and less than 90%) | 5 (mortality of 90% or above (nearly complete death)) | 0 (mortality of less than 5% (almost ineffective)) | 5 (mortality of 90% or above (nearly complete death)) | 0 (mortality of less than 5% (almost ineffective)) | L: common lambsquater, herbicidal effect [21]: 0 (mortality of less than 5% (almost ineffective)); A: barnyardgrass, herbicidal effect [22]: 4 (mortality of at least 70% and less than 90%); O: beadstraw, herbicidal effect [23]: 0 (mortality of less than 5% (almost ineffective)); M: posumbu knotweed, herbicidal effect [24]: 0 (mortality of less than 5% (almost ineffective)); F: wild oat, herbicidal effect [25]: 0 (mortality of less than 5% (almost ineffective)); H: Italian ryegrass, herbicidal effect [26]: 1 (mortality of at least 5% and less than 20%); E: giant foxtail, herbicidal effect [27]: 3 (mortality of at least 40% and less than 70%); N: common chickweed, herbicidal effect [28]: 5 (mortality of 90% or above (nearly complete death)); D: large crabgrass, herbicidal effect [29]: 4 (mortality of at least 70% and less than 90%); G: water foxtail, herbicidal effect [30]: 5 (mortality of 90% or above (nearly complete death)); J: common ragweed, herbicidal effect [31]: 1 (mortality of at least 5% and less than 20%); I: velvetleaf, herbicidal effect [32]: 3 (mortality of at least 40% and less than 70%); K: redroot pigweed, herbicidal effect [33]: 0 (mortality of less than 5% (almost ineffective))
2 | CC(C)COC(=O)N(c1ccccc1CN1COCN(C)C1=O)S(=O)(=O)C(F)(F)F [IV-4] | 0 (mortality of less than 5% (almost ineffective)) | 5 (mortality of 90% or above (nearly complete death)) | 5 (mortality of 90% or above (nearly complete death)) | 4 (mortality of at least 70% and less than 90%) | 5 (mortality of 90% or above (nearly complete death)) | 5 (mortality of 90% or above (nearly complete death)) | 5 (mortality of 90% or above (nearly complete death)) | 0 (mortality of less than 5% (almost ineffective)) | 4 (mortality of at least 70% and less than 90%) | 0 (mortality of less than 5% (almost ineffective)) | 0 (mortality of less than 5% (almost ineffective)) | 0 (mortality of less than 5% (almost ineffective)) | 0 (mortality of less than 5% (almost ineffective)) | 3 (mortality of at least 40% and less than 70%) | 0 (mortality of less than 5% (almost ineffective)) | 4 (mortality of at least 70% and less than 90%) | 4 (mortality of at least 70% and less than 90%) | 0 (mortality of less than 5% (almost ineffective)) | 0 (mortality of less than 5% (almost ineffective)) | 0 (mortality of less than 5% (almost ineffective)) | L: common lambsquater, herbicidal effect [21]: 0 (mortality of less than 5% (almost ineffective)); A: barnyardgrass, herbicidal effect [22]: 4 (mortality of at least 70% and less than 90%); O: beadstraw, herbicidal effect [23]: 0 (mortality of less than 5% (almost ineffective)); M: posumbu knotweed, herbicidal effect [24]: 0 (mortality of less than 5% (almost ineffective)); F: wild oat, herbicidal effect [25]: 0 (mortality of less than 5% (almost ineffective)); H: Italian ryegrass, herbicidal effect [26]: 1 (mortality of at least 5% and less than 20%); E: giant foxtail, herbicidal effect [27]: 3 (mortality of at least 40% and less than 70%); N: common chickweed, herbicidal effect [28]: 3 (mortality of at least 40% and less than 70%); D: large crabgrass, herbicidal effect [29]: 3 (mortality of at least 40% and less than 70%); G: water foxtail, herbicidal effect [30]: 4 (mortality of at least 70% and less than 90%); J: common ragweed, herbicidal effect [31]: 0 (mortality of less than 5% (almost ineffective)); I: velvetleaf, herbicidal effect [32]: 3 (mortality of at least 40% and less than 70%); K: redroot pigweed, herbicidal effect [33]: 0 (mortality of less than 5% (almost ineffective))

Reference: patent US20120029187A1, “HALOALKYLSULFONANILIDE DERIVATIVE” (Nissan Chemical Industries, Ltd., priority 2009, published 2012)
